Patent US5756683A, “Immunological detection method” (Novartis Finance Corporation, priority 1991, dated 1998)

Target: MAb 4197-70-12
Test: two-step competitive ELISA; inhibition of MAb binding to carrier-bound antigen (cross-reactivity)
Design: species or system mouse (Balb/c)
Conditions: for I50 (inhibitor concentration that reduces the ELISA signal by 50% in comparison with the control): competitive ELISA; for cross-reactivity: (antigen conc. for 50% inhibition/concentration of the antigen analog for 50% inhibition) × 100: relative to compound of formula (II) = 100
Experimental: [antigen concentration for 50% inhibition (I50)/concentration of the
antigen analogs for 50% inhibition (I50)]×100.
The I50 value can be determined, for example, by means of a competitive ELISA assay (see Example 8).
The detection of a compound of formula (II) can be effected by means of a two-step competitive ELISA test.
BSA-conjugated hapten, prepared in accordance with Example 1.2.1, in a 50 mM sodium carbonate buffer (pH 9.6) (200 ng of BSA-conjugated hapten/100 μl of 50 mM sodium carbonate buffer) is first of all adsorbed on microtitre plates (for example Dynatech, type M 129A) and incubated overnight at a temperature of 4° C.
The plates are then washed five times with PBS buffer enriched with 0.1% (v/v) polysorbate 20 (Tween 20) (PBS Tween).
The remaining free binding sites of the solid carrier material are then blocked by the addition of PBS-BSA in the form of a 1% (w/v) solution. After incubation for two hours at 22° C. the plates are washed again with PBS Tween (0.1%).
50 μl of the supernatant of the previously cloned hybridoma cells (in a dilution of from 1:1000 to 1:2000) or 50 μl of the previously purified monoclonal antibodies (40-120 ng/ml) are incubated a) with 950 μl of a standard solution containing an increasing amount of antigen [compound of formula (II)] or of antigen analog, b) with antigen-containing water samples or c) with antigen-containing soil extracts. [All dilutions are carried out in PBS Tween (0.1%)].
After an incubation period of 1 hour at room temperature (22° C.), 200 μl of the antigen/antibody mixture are added to each well in the microtitre plate and the whole batch is incubated for a further one hour. The wells are then washed five times with PBS Tween (0.1%) and charged with 100 μl/well of goat anti-mouse IgG antibody that is conjugated to alkaline phosphatase (dilution 1:1500), and incubated for a period of 1.5 hours.
After washing again, 150 μl/well of the substrate p-nitrophenyl phosphate dissolved in 1 mg/ml of diethanolamine buffer (1 mM, pH 9.8, enriched with 0.5 mM MgCl2 ×6H2 O) are added to the wells.
The intensity of the colour reaction that has occurred is determined at a wavelength of 405 nm. […] All the samples are determined in triplicate.
In order to determine the amount of antigen [[…]] present in a sample, first of all a calibration curve is produced, B/Bo×100 being plotted against the concentration of inhibitor. (Bo represents the absorption capacity measured without the addition of an antigen inhibitor to the antibody, and B is the absorption capacity when antigen inhibitors at various concentrations are added). The I50 value indicates the concentration of the antigen at which the binding of antibody to the solid phase is inhibited by 50%. The I50 value is determined using an ENZFITTER (Leatherbarrow, Elsevier-Biosoft) curve-calculation program based on a four-parameter logistical curve (Raab GM, 1983) and specially adapted to the prevailing conditions. The quantitative determination of antigen in soil or water samples within the context of ELISA is also carried out using the ENZFITTER program, the adaptation of the curve being based on standards that run on any microtitre plate.
^a) Inhibitor concentration that reduces the ELISA signal by 50% in
comparison with the control.
^b) (antigen conc. for 50% inhibition/concentration of the antigen
analog for 50% inhibition) × 100.

Row | Structure (SMILES) | I50 (inhibitor concentration that reduces the ELISA signal by 50% in comparison with the control) | cross-reactivity: (antigen conc. for 50% inhibition/concentration of the antigen analog for 50% inhibition) × 100 | cross-reactivity in words
1 | COc1nc(C)nc(NC(=O)NS(=O)(=O)c2ccc(O)cc2OCCCl)n1 [A] | > 1000 ng/mL | < 0.1% | –
2 | COc1nc(C)nc(NC(=O)NS(=O)(=O)c2ccccc2OCCCl)n1 [B] | > 1000 ng/mL | < 0.1% | no cross-reactivity
3 | COc1nc(C)nc(NC(=O)NS(=O)(=O)c2ccccc2CCC(F)(F)F)n1 [Compound of formula (II), N-[2-(3,3,3-trifluoropropyl)-phenylsulfonyl]-N'-(4-methoxy-6-methyl-1,3,5-triazin-2-yl)urea] | 0.8 ng/mL | 100% | –
4 | COC(=O)c1ccccc1S(=O)(=O)NC(=O)Nc1nc(OC(F)F)cc(OC(F)F)n1 [D] | > 1000 ng/mL | < 0.1% | –
